From ChEMBL document CHEMBL1201862, “PubChem BioAssay data set” (2004)
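Interpolation was linear, between the two tested concentrations surrounding the appropriate level; five concentrations were tested over 48 hours in 96-well plates. GI50 marks 50% less growth.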 The source made the active and inactive calls. Cut-off read from the data, not from the text of the source: active = GI50 up to about 1.1 µM and inactive = higher.

Assays:
Assay in all cases: growth of human tumour cells (NCI), 48 h
KM12 = system: KM12
M14 = system: M14
SK-OV-3 = system: SK-OV-3
A498 = system: A498
NCI-H226 = system: NCI-H226
SW-620 = system: SW-620
EKVX = system: EKVX
SNB-75 = system: SNB-75
OVCAR-3 = system: OVCAR-3
UACC-62 = system: UACC-62
RXF 393 = system: RXF 393
HL-60 = system: HL-60
SF-539 = system: SF-539
UACC-257 = system: UACC-257
HCT-116 = system: HCT-116
CCRF-CEM = system: CCRF-CEM
SF-295 = system: SF-295
SK-MEL-28 = system: SK-MEL-28
HT-29 = system: HT-29

Row | SMILES | GI50 (KM12) | GI50 (M14) | GI50 (SK-OV-3) | GI50 (A498) | GI50 (NCI-H226) | GI50 (SW-620) | GI50 (EKVX) | GI50 (SNB-75) | GI50 (OVCAR-3) | GI50 (UACC-62) | GI50 (RXF 393) | GI50 (HL-60) | GI50 (SF-539) | GI50 (UACC-257) | GI50 (HCT-116) | GI50 (CCRF-CEM) | GI50 (SF-295) | GI50 (SK-MEL-28) | GI50 (HT-29)
1 | O=C1c2c(c(-c3ccccc3)c(-c3ccccc3)c(-c3ccccc3)c2-c2ccccc2)C(=O)N1c1cccc(Br)c1 | > 100 µM (inactive) | 58.3 µM (inactive) | > 100 µM (inactive) | > 100 µM (inactive) | > 100 µM (inactive) | > 100 µM (inactive) | > 100 µM (inactive) | > 100 µM (inactive) | > 100 µM (inactive) | > 100 µM (inactive) | > 100 µM (inactive) | > 100 µM (inactive) | > 100 µM (inactive) | > 100 µM (inactive) | > 100 µM (inactive) | > 100 µM (inactive) | > 100 µM (inactive) |  | 
2 | O=C(NC(=O)c1cn(CCNCCO)c(=O)[nH]c1=O)OCc1ccccc1 | > 100 µM (inactive) | > 100 µM (inactive) | > 100 µM (inactive) |  | > 100 µM (inactive) | > 100 µM (inactive) | > 100 µM (inactive) | 45.9 µM (inactive) | > 100 µM (inactive) | > 100 µM (inactive) | > 100 µM (inactive) | > 100 µM (inactive) | > 100 µM (inactive) |  | > 100 µM (inactive) | > 100 µM (inactive) | > 100 µM (inactive) | > 100 µM (inactive) | > 100 µM (inactive)
3 | CC(=O)O[C@H]1CC[C@@]2(C)C(=CC[C@@H]3C2CC[C@]2(C)Nc4nc5ccccc5cc4CC32)C1 (stereo partly drawn) | 3.88 µM (inactive) | 2.19 µM (inactive) | 2.82 µM (inactive) | 5.47 µM (inactive) | 3.05 µM (inactive) | 2.59 µM (inactive) | 5.74 µM (inactive) | 2.65 µM (inactive) | 2.5 µM (inactive) | 10.8 µM (inactive) | 2.07 µM (inactive) | 4.32 µM (inactive) | 3.78 µM (inactive) | 3.66 µM (inactive) | 1.86 µM (inactive) | 3.54 µM (inactive) | 3.78 µM (inactive) |  | 1.82 µM (inactive)
4 | CC(C)(c1ccccc1)c1ccc(Oc2ccc3c(c2)-c2nc-3nc3[nH]c(nc4nc(nc5[nH]c(n2)c2ccc(Oc6ccc(C(C)(C)c7ccccc7)cc6)cc52)-c2cc(Oc5ccc(C(C)(C)c6ccccc6)cc5)ccc2-4)c2ccc(Oc4ccc(C(C)(C)c5ccccc5)cc4)cc32)cc1 | > 100 µM (inactive) | > 100 µM (inactive) | > 100 µM (inactive) | > 100 µM (inactive) |  | > 100 µM (inactive) | > 100 µM (inactive) | 27.8 µM (inactive) |  | > 100 µM (inactive) | 23.9 µM (inactive) | > 100 µM (inactive) | 35 µM (inactive) | > 100 µM (inactive) | > 100 µM (inactive) | > 100 µM (inactive) |  | > 100 µM (inactive) | > 100 µM (inactive)
5 | COc1c2c(c(OC)c3c(=O)cc(C/C(=N/NC(=O)C[n+]4ccccc4)C(=O)Nc4cc(C)ccc4C)oc13)OCO2 | > 100 µM (inactive) | > 100 µM (inactive) | > 100 µM (inactive) | > 100 µM (inactive) |  | > 100 µM (inactive) | > 100 µM (inactive) | > 100 µM (inactive) | > 100 µM (inactive) | > 100 µM (inactive) | > 100 µM (inactive) | > 100 µM (inactive) | > 100 µM (inactive) | > 100 µM (inactive) | > 100 µM (inactive) | > 100 µM (inactive) |  | > 100 µM (inactive) | > 100 µM (inactive)
6 | CN(C)/N=C(/c1nc2ccc([N+](=O)[O-])cc2nc1O)C(O)c1ccco1 (stereo not drawn) | 34.8 µM (inactive) | > 100 µM (inactive) | > 100 µM (inactive) |  | > 100 µM (inactive) | 92.3 µM (inactive) |  | > 100 µM (inactive) | > 100 µM (inactive) | 22.8 µM (inactive) | > 100 µM (inactive) | > 100 µM (inactive) | > 100 µM (inactive) | > 100 µM (inactive) | > 100 µM (inactive) | > 100 µM (inactive) | > 100 µM (inactive) | > 100 µM (inactive) | > 100 µM (inactive)
7 | CCCC(C)n1c(C)nc2c1C(=O)c1ccccc1C2=O (stereo not drawn) | 22.9 µM (inactive) | 34.6 µM (inactive) | 42.7 µM (inactive) |  | 34.4 µM (inactive) | 37.7 µM (inactive) | 43.6 µM (inactive) | 19.5 µM (inactive) | 25.9 µM (inactive) | 6.78 µM (inactive) | 20 µM (inactive) | 33.2 µM (inactive) | 13 µM (inactive) | 22.4 µM (inactive) | 5.52 µM (inactive) | 30.3 µM (inactive) | 23.7 µM (inactive) | 33.7 µM (inactive) | 17.3 µM (inactive)
8 | Cc1nc2c(n1CCN(C)C)C(=O)c1ccccc1C2=O | 15.2 µM (inactive) | 11.8 µM (inactive) | 45.8 µM (inactive) |  | 31.6 µM (inactive) | 15.2 µM (inactive) | 17.9 µM (inactive) | 33.1 µM (inactive) | 7.03 µM (inactive) | 11.9 µM (inactive) | 19.4 µM (inactive) | 5.3 µM (inactive) | 19.1 µM (inactive) | 14 µM (inactive) | 14.5 µM (inactive) | 17.7 µM (inactive) | 15.7 µM (inactive) | 53.6 µM (inactive) | 10.4 µM (inactive)
9 | CCc1cccc(C(C)CC)c1/N=C(/NC(=O)c1ccccc1C(=O)N/C(=N/c1c(CC)cccc1C(C)CC)SC)SC (stereo not drawn) | 36 µM (inactive) | 20 µM (inactive) | 28.6 µM (inactive) |  | 17.7 µM (inactive) | 31.9 µM (inactive) | 35.6 µM (inactive) |  | 36.6 µM (inactive) | 20.9 µM (inactive) | 35.5 µM (inactive) | 20.9 µM (inactive) | 26.5 µM (inactive) | 54.3 µM (inactive) | 34.4 µM (inactive) | 27.5 µM (inactive) | 37.4 µM (inactive) | 45 µM (inactive) | 40.4 µM (inactive)
10 | CC(=O)N1c2ccccc2N(C(C)=O)C1c1ccc(C2N(C(C)=O)c3ccccc3N2C(C)=O)[nH]1 | > 100 µM (inactive) | > 100 µM (inactive) | > 100 µM (inactive) | > 100 µM (inactive) | > 100 µM (inactive) | > 100 µM (inactive) | > 100 µM (inactive) | > 100 µM (inactive) | > 100 µM (inactive) | > 100 µM (inactive) | > 100 µM (inactive) | > 100 µM (inactive) | > 100 µM (inactive) | > 100 µM (inactive) | > 100 µM (inactive) | > 100 µM (inactive) | > 100 µM (inactive) |  | > 100 µM (inactive)
11 | O=C1c2nn(-c3ccccc3)nc2C(c2ccccc2)N1c1ccccc1 (stereo not drawn) | > 100 µM (inactive) | > 100 µM (inactive) |  |  | 34 µM (inactive) | > 100 µM (inactive) | > 100 µM (inactive) | 25 µM (inactive) | > 100 µM (inactive) | > 100 µM (inactive) |  |  | 59.8 µM (inactive) | > 100 µM (inactive) | > 100 µM (inactive) | > 100 µM (inactive) | 41.7 µM (inactive) | > 100 µM (inactive) | > 100 µM (inactive)
12 | Clc1ccc(OCc2nnc3n2N=C(c2ccc(Br)cc2)CS3)cc1 | 80.7 µM (inactive) | > 10 µM (inactive) | 15 µM (inactive) | 5.36 µM (inactive) | 53.1 µM (inactive) | 32.7 µM (inactive) |  | 2.96 µM (inactive) | > 10 µM (inactive) | 27.1 µM (inactive) | 12.1 µM (inactive) | > 100 µM (inactive) | 8.43 µM (inactive) | 23.1 µM (inactive) | 22.6 µM (inactive) | > 100 µM (inactive) | 15.8 µM (inactive) | 28 µM (inactive) | 36.2 µM (inactive)
13 | CC1CCC(C(C)(C)c2ccccc2)C(=O)C1 (stereo not drawn) | > 100 µM (inactive) | > 100 µM (inactive) | > 100 µM (inactive) | > 100 µM (inactive) |  | > 100 µM (inactive) | > 100 µM (inactive) | > 100 µM (inactive) | > 100 µM (inactive) | > 100 µM (inactive) |  | 25.6 µM (inactive) | > 100 µM (inactive) | > 100 µM (inactive) | > 100 µM (inactive) | > 100 µM (inactive) | > 100 µM (inactive) |  | > 100 µM (inactive)
14 | CN1C(OCc2ccccc2)c2c(ccc3c2OCO3)C2C=Cc3cc4c(cc3C21)OCO4 (stereo not drawn) | 1.01 µM (active) | 0.885 µM (active) | 1.22 µM (inactive) |  | 1.47 µM (inactive) | 0.38 µM (active) | 1.62 µM (inactive) | 1.4 µM (inactive) | 0.69 µM (active) | 1.2 µM (inactive) | 1.1 µM (active) | 0.226 µM (active) | 1.63 µM (inactive) | 1.37 µM (inactive) | 0.398 µM (active) | 0.254 µM (active) | 1.47 µM (inactive) | 0.455 µM (active) | 0.375 µM (active)
15 | C/C(=C\c1ccccc1)C(O)S(=O)(=O)O (stereo not drawn) | > 100 µM (inactive) | > 100 µM (inactive) | > 100 µM (inactive) | > 100 µM (inactive) | > 100 µM (inactive) | > 100 µM (inactive) | > 100 µM (inactive) | > 100 µM (inactive) | > 100 µM (inactive) | > 100 µM (inactive) | > 100 µM (inactive) | > 100 µM (inactive) |  | > 100 µM (inactive) | > 100 µM (inactive) | > 100 µM (inactive) | > 100 µM (inactive) | > 100 µM (inactive) | > 100 µM (inactive)
